The target of test [1] is recombinant RORγ Ligand Binding Domain (LBD) protein (Homo sapiens (Human), UniProt P51449). As to the kind of experiment: Radio-Ligand RORγ Binding Assay (Assay 1). Conditions: radio-ligand 25-hydroxy [26,27-3H]-cholesterol competition. How it is done:
Radio-Ligand RORγ Binding Assay (Assay 1)
Compounds described herein were tested for ability to bind to RORγ in a cell-free competition assay with commercially available radio-ligand (RL), 25-hydroxy [26,27-^3H]-cholesterol (PerkinElmer, Cat. # NET674250UC), for a ligand binding site on a recombinant RORγ Ligand Binding Domain (LBD) protein expressed as a 6×His-Glutathione-S-Transferase (GST) fusion. […] The plate was shaken at 700 rpm for 20 min and incubated for 10 min at rt, after which 40 μL of poly-Lys YSi SPA beads (PerkinElmer, Cat. # RPNQ0010) were added to achieve 50 μg of the beads per well. The plate was incubated on an orbital shaker for 20 min and then for 10 min without agitation at rt. SPA signal for tritium beta radiation was registered on PerkinElmer Microbeta plate reader. […] The percent inhibition vs. concentration data were fit into a four-parameter model, and IC50 values were calculated from the fit as the concentrations corresponding to the inflection points on the dose-response curves. […]

Test [2] deals with full-length RORγt in Jurkat cells (Homo sapiens (Human), UniProt P51449). Briefly: RORγt 5×RORE Assay in Jurkat Cells (Assay 2). The class given is cell-based. Conditions: RORγt 5×RORE Nanoluc reporter. As for the experimental part: [formula] RORγt 5×RORE Assay in Jurkat Cells (Assay 2)
full-length RORγt in Jurkat cells, sequence (P51449 other isoform, or with tags, fused parts or gaps): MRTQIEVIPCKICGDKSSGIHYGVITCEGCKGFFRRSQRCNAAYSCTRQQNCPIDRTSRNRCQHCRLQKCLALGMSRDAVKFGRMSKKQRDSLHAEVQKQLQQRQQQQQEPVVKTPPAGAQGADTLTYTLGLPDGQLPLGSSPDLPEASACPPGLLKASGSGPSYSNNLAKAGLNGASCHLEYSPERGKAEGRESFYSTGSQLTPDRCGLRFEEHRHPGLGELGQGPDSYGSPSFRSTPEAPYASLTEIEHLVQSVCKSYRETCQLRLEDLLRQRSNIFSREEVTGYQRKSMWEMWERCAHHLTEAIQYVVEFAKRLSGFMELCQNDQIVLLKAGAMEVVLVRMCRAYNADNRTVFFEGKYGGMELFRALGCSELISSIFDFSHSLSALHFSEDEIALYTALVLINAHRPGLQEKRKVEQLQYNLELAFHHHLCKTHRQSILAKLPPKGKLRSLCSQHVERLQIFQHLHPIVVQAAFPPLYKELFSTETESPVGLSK
Compounds described herein were tested for RORγ inverse agonist activity in a cell-based, transcriptional activity assay. […] (Promega, Cat. # N1021) using KpnI and HindIII restriction sites. […] Tested compounds were added to the cells in the same media (final concentration of DMSO was 0.1% (v/v)), and the plates were incubated at 37° C./5% CO2 for 16-18 hrs. Luciferase activity in the conditioned supernatants was determined with NanoGlo® assay reagents (Promega, Cat.# N1130).

recombinant RORγ Ligand Binding Domain (LBD) protein, sequence (P51449 269-508): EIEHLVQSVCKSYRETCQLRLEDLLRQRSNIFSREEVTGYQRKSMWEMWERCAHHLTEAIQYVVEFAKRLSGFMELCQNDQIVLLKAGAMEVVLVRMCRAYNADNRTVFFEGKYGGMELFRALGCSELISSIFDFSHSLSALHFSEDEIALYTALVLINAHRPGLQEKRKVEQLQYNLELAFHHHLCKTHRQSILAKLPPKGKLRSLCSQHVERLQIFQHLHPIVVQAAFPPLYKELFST

Take `CS(=O)(=O)c1ccc(CNC(=O)c2ccc3c(c2)nc(C[C@H]2CC[C@H](C(F)(F)F)CC2)n3C2CC2)cc1` [BE-30, 1-cyclopropyl-N-(4-(methylsulfonyl)benzyl)-2-(((1r,4r)-4-(trifluoromethyl)cyclohexyl)methyl)-1H-benzo[d]imidazole-5-carboxamide]: the Ki (in general, a dissociation constant, usually derived from enzyme kinetics or from competition with a known ligand) in test [1] is under 100 nM. Moreover, the IC50 (as a rule, the point on the concentration scale where inhibition reaches its midpoint) in test [2] was under 100 nM.

In the case of `CCn1c(Cc2ccc(C(F)(F)F)cc2)cc2cc(C(=O)NCc3ccc(S(=O)(=O)CC)cn3)ccc21` [IN-2, 1-ethyl-N-((5-(ethylsulfonyl)pyridin-2-yl)methyl)-2-(4-(trifluoromethyl)benzyl)-1H-indole-5-carboxamide], the Ki in test [1] is under 100 nM. In test [2], this compound had a half-inhibitory concentration (IC50) of under 100 nM.

Take `CCS(=O)(=O)c1ccc(CNC(=O)c2ccc3c(c2)cc(Cc2ccc(C(F)(F)F)cc2)n3C2CC2)cc1` [IN-18, 1-cyclopropyl-N-(4-(ethylsulfonyl)benzyl)-2-(4-(trifluoromethyl)benzyl)-1H-indole-5-carboxamide]: in test [1], the Ki was under 100 nM. Also, the IC50 in test [2] was under 100 nM.

`CCS(=O)(=O)c1ccc(CNC(=O)c2ccc3c(c2)nc(C[C@H]2CC[C@@H](C(F)(F)F)CC2)n3C2CC2)cc1` [BE-18.2, 1-cyclopropyl-N-(4-(ethylsulfonyl)benzyl)-2-((cis-4-(trifluoromethyl)cyclohexyl)methyl)-1H-benzo[d]imidazole-5-carboxamide]: in test [1], the Ki is under 100 nM. Moreover, the half-maximal inhibitory concentration (IC50) in test [2] was over 1000 nM.

`CCS(=O)(=O)c1ccc(CNC(=O)c2ccc3c(c2)nc(C[C@H]2CC[C@H](C(F)(F)F)CC2)n3CC(C)C)cc1` [BE-19.1, N-(4-(ethylsulfonyl)benzyl)-1-isobutyl-2-(((1r,4r)-4-(trifluoromethyl)cyclohexyl)methyl)-1H-benzo[d]imidazole-5-carboxamide]: the inhibitory constant (Ki) in test [1] was under 100 nM. The 50% inhibitory concentration (IC50) in test [2] is under 100 nM.

As to `CCn1c(Oc2ccc(C(F)(F)F)cc2)nc2cc(C(=O)NCc3ccc(S(=O)(=O)CC)cc3)ccc21` [BE-5, 1-ethyl-N-(4-(ethylsulfonyl)benzyl)-2-(4-(trifluoromethyl)phenoxy)-1H-benzo[d]imidazole-5-carboxamide], in test [1], the Ki is under 100 nM. Besides, the IC50 in test [2] is under 100 nM.

On to `CCS(=O)(=O)c1ccc([C@H](CO)NC(=O)c2ccc3c(c2)nc(COC2CCC(C(F)(F)F)CC2)n3C2CC2)cc1` (single isomer, unassigned) [BE-71.1], for which, in test [1], the inhibition constant (Ki) was under 100 nM. In test [2], this compound came in with a half-inhibitory concentration (IC50) of under 100 nM.

With `CCn1c(Cc2ccc(C(F)(F)F)cc2)cc2cc(C(=O)N[C@@H](CO)c3ccc(S(=O)(=O)CC)cc3)ccc21` [IN-3, (R)-1-ethyl-N-(1-(4-(ethylsulfonyl)phenyl)-2-hydroxyethyl)-2-(4-(trifluoromethyl)benzyl)-1H-indole-5-carboxamide], the Ki in test [1] is under 100 nM. In test [2], this compound returned a 50% inhibitory concentration (IC50) of under 100 nM.

`CCS(=O)(=O)c1ccc([C@H](CO)NC(=O)c2ccc3c(c2)cc(CN2CCC(C(F)(F)F)CC2)n3C2CC2)cc1` [IN-13, (R)-1-cyclopropyl-N-(1-(4-(ethylsulfonyl)phenyl)-2-hydroxyethyl)-2-((4-(trifluoromethyl)piperidin-1-yl)methyl)-1H-indole-5-carboxamide]: the Ki in test [1] was under 100 nM. In test [2], the half-maximal inhibitory concentration (IC50) was under 100 nM.

Consider `CCS(=O)(=O)c1ccc(CNC(=O)c2ccc3c(c2)nc(C[C@H]2CC[C@H](C(F)(F)F)CC2)n3C2CC2)cc1` [BE-18.1, 1-cyclopropyl-N-(4-(ethylsulfonyl)benzyl)-2-((trans-4-(trifluoromethyl)cyclohexyl)methyl)-1H-benzo[d]imidazole-5-carboxamide], for which the Ki in test [1] is under 100 nM. Further, the 50% inhibitory concentration (IC50) in test [2] was under 100 nM.

Consider `CCn1c(Cc2ccc(C(F)(F)F)cc2)cc2cc(C(=O)NCc3ccc(S(=O)(=O)CC)cc3)ccc21` [IN-1, 1-ethyl-N-(4-(ethylsulfonyl)benzyl)-2-(4-(trifluoromethyl)benzyl)-1H-indole-5-carboxamide], for which the Ki in test [1] is under 100 nM. Also, in test [2], the IC50 is under 100 nM.

As for `CCS(=O)(=O)c1ccc(CNC(=O)c2ccc3c(c2)nc(Cc2ccc(C(F)(F)F)cc2)n3C2CC2)cc1` [BE-36, 1-cyclopropyl-N-(4-(ethylsulfonyl)benzyl)-2-(4-(trifluoromethyl)benzyl)-1H-benzo[d]imidazole-5-carboxamide], the Ki in test [1] was under 100 nM. Further, in test [2], the IC50 was under 100 nM.

As to “1-ethyl-N-((5-(ethylsulfonyl)pyridin-2-yl)methyl)-2-(((1s,4s)-4-(trifluoromethyl)cyclohexyl)methyl)-1H-indole-5-carboxamide [IN-15.2]”, the Ki in test [1] was under 100 nM. In addition, in test [2], the half-maximal inhibitory concentration (IC50) is over 1000 nM.

For `CCn1c(Oc2ccc(C(F)(F)F)cc2)nc2cc(C(=O)N[C@@H](CN)c3ccc(S(=O)(=O)CC)cc3)ccc21` [BE-11, (R)-N-(2-amino-1-(4-(ethylsulfonyl)phenyl)ethyl)-1-ethyl-2-(4-(trifluoromethyl)phenoxy)-1H-benzo[d]imidazole-5-carboxamide], the Ki in test [1] is under 100 nM. In addition, in test [2], the half-inhibitory concentration (IC50) was under 100 nM.

For the compound `CCn1c(C[C@H]2CC[C@H](C(F)(F)F)CC2)cc2cc(C(=O)NCc3ccc(S(=O)(=O)CC)cn3)ccc21` [IN-15.1, 1-ethyl-N-((5-(ethylsulfonyl)pyridin-2-yl)methyl)-2-(((1r,4r)-4-(trifluoromethyl)cyclohexyl)methyl)-1H-indole-5-carboxamide], in test [1], the inhibition constant (Ki) was under 100 nM. In test [2], this compound displayed an IC50 of under 100 nM.

As for `CCn1c(Cc2ccc(C(F)(F)F)cn2)cc2cc(C(=O)N[C@@H](CO)c3ccc(S(=O)(=O)CC)cc3)ccc21` [IN-9, (R)-1-ethyl-N-(1-(4-(ethylsulfonyl)phenyl)-2-hydroxyethyl)-2-((5-(trifluoromethyl)pyridin-2-yl)methyl)-1H-indole-5-carboxamide], in test [1], the Ki was under 100 nM. Also, the IC50 in test [2] was under 100 nM.

For the compound `CS(=O)(=O)c1ccc(CNC(=O)c2cnc3c(c2)nc(Cc2ccc(C(F)(F)F)cc2)n3C2CC2)cc1` [AB-2, 3-cyclopropyl-N-(4-(methylsulfonyl)benzyl)-2-(4-(trifluoromethyl)benzyl)-3H-imidazo[4,5-b]pyridine-6-carboxamide], in test [1], the Ki was in the range of 100 to 1000 nM.

For `CCS(=O)(=O)c1ccc(CNC(=O)c2cc(Br)c3c(c2)nc(Cc2ccc(C(F)(F)F)cc2)n3C)cc1` [BE-59, 7-bromo-N-(4-(ethylsulfonyl)benzyl)-1-methyl-2-(4-(trifluoromethyl)benzyl)-1H-benzo[d]imidazole-5-carboxamide], the inhibitory constant (Ki) in test [1] was 100 to 1000 nM.

With `CCS(=O)(=O)c1ccc([C@@H](CO)NC(=O)c2ccc3c(c2)nc(C[C@H]2CC[C@H](C(F)(F)F)CC2)n3C2CC2)nc1` [BE-29, 1-cyclopropyl-N-((S)-1-(5-(ethylsulfonyl)pyridin-2-yl)-2-hydroxyethyl)-2-(((1r,4S)-4-(trifluoromethyl)cyclohexyl)methyl)-1H-benzo[d]imidazole-5-carboxamide], in test [1], the inhibition constant (Ki) is over 1000 nM.

With `CCS(=O)(=O)c1ccc(CNC(=O)c2ccc3c(c2)nc(C(=O)C2CCC(C(F)(F)F)CC2)n3C2CC2)cc1` (stereo not drawn) [BE-64, 1-cyclopropyl-N-(4-(ethylsulfonyl)benzyl)-2-(4-(trifluoromethyl)cyclohexane-1-carbonyl)-1H-benzo[d]imidazole-5-carboxamide], in test [1], the inhibition constant Ki was under 100 nM.
